# In patent publication US20120004281A1, “RNA Interference Mediated Inhibition of the Nerve Growth Factor Beta Chain (NGFB) Gene Expression Using Short Interfering Nucleic Acid (siNA)” (Merck Sharp & Dohme Corp, priority 2009, published 2012):
# [invAb] = inverted abasic unit; m = 2'-O-methyl; r = 2'-OH (RNA); f = 2'-fluoro
# Tested on: NGFβ mRNA
# Assay: NGFβ mRNA knock-down in Calu-1 cells (RNAiMax transfection, Taqman RT-PCR)
# Assay type: cell-based, human
# Conditions: human Calu-1 cells, 10 nM siNA, 24 hrs post-transfection, relative to non-targeting control, normalized to GAPDH
# Method: Calu-1 (human; ATCC cat# HTB-54): Cells were cultured at 37° C. in the presence of 5% CO2 and grown in McCoy's 5a medium supplemented with fetal bovine serum at a final concentration of 10% and 100 μg/mL of streptomycin and 100 U/mL penicillin.
# All transfections were performed using RNAiMax (Invitrogen Cat# 13778-150) as per the manufacturer's instructions.
# Cells were plated in all wells of a tissue-culture treated, 96-well plate at a final count of 5,000 cells/well in […], of appropriate culture media. Cells were cultured for 24 hours after plating at 37° C. in the presence of 5% CO2.
# After 24 hours, complexes containing siNA and RNAiMax were created as follows: A solution of RNAiMax diluted 33-fold in OPTI-MEM was prepared. In parallel, solutions of the siNAs for testing were prepared to a final concentration of 120 nM in OPTI-MEM. After incubation of RNAiMax/OPTI-MEM solution at room temperature for 5 min, an equal volume of the siRNA solution and the RNAiMax solution were added together for each of the siNAs.
# This solution was incubated at room temperature for 20 minutes. After incubation, 20 uL of the solution was added to each of the relevant wells.
# The final concentration of siNA in each well was 10 nM and the final volume of RNAiMax in each well was 0.3u1.
# The time of incubation with the RNAiMax-siNA complexes was 24 hours, unless otherwise indicated. There was no change in media between the transfection and harvesting of the cells unless otherwise indicated.
# Dose response curves were carried out in a similar fashion in 96-well plates, while maintaining a constant amount of RNAiMax in each transfection.
# RNA was extracted from a 96-well plate using the TaqMan® Gene Expression Cells-to-CT™ Kit (Cat# 4399002) with a modified protocol. Briefly, a 60 uL (1 plate) or 110 uL (2 plates) of the Lysis Solution with DNase I was dispensed into each well of the Lysis Buffer Plate (twin.tec full skirt plate). The lysis buffer and stop plates were stored at 4° C. until the cells were washed.
# The plate was spun at 1100 rpm for 5 minutes. The culture medium was aspirated and discarded from the wells of the culture plate. The lysis was performed automatically using a BioMek FX instrument and method. After the Biomek method was completed, the lysis plate was incubated for 2 min. at room temperature. The lysis plate can be stored for 2 hours at 4° C., or at −20° C. or −80° C. for two months.
# Each well of the reverse transcription plate required 10 uL of 2× reverse transcriptase Buffer, luL of 20× reverse transcription enzyme and 2 uL of nuclease-free water. The reverse transcription master mix was prepared by mixing 2× reverse transcription buffer, 20× reverse transcription enzyme mix, and nuclease-free water. 13 uL of the reverse transcription master mix was dispensed into each well of the reverse transcription plate (semi-skirted). A separate reverse transcription plate was prepared for each cell plate. The plate was loaded onto a Biomek NX or Biomek FX Dual-96 and the Biomek method was run. The program is programmed to automatically added 7 uL of lysate from the cell lysis procedure described above into each well of the reverse transcription plate. The plate is sealed and spun on a centrifuge (1000 rpm for 30 seconds) to settle the contents to the bottom of the reverse transcription plate. The plate is placed in a thermocycler at 37° C. for 60 min, 95° C. for 5 min, and 4° C. until the plate is removed from the thermocycler. Upon removal, if not used immediately, the plate was frozen at −20° C.
# A series of probes and primers were used to detect the various mRNA transcripts of the genes of NGFβ, BDNF and GAPDH in human cell lines. All the Taqman probes and primers for the experiments here-in described were supplied as pre-validated sets by Applied Biosystems, Inc. (see Table 3). The assays were performed on an ABI 7900 instrument, according to the manufacturer's instructions. […]
row,Substance,% KD in CaLu-1 Cells [%]
1,"25403-DC: siNA duplex, NGFβ target site 958; sense B ccuGuAAAuuAuuuuAAAu TTB (SEQ ID NO: 31), antisense AUUuAAAAuAAuuuAcAGGUU (SEQ ID NO: 32) (sense CCUGUAAAUUAUUUUAAAUTT; antisense AUUUAAAAUAAUUUACAGGUU; sense: DNA at AGT, 2'-fluoro at CU, [invAb] at 5' end, 3' end, backbone not given here; antisense: sugars from the 5' end rrrfmmmmfmmfffmfmmmmm, backbone not given here)",60
2,"25409-DC: siNA duplex, NGFβ target site 468; sense B cucAGGAucuGGAcuucGA TTB (SEQ ID NO: 43), antisense UCGAAGuccAGAuccuGAGUU (SEQ ID NO: 44) (sense CUCAGGAUCUGGACUUCGATT; antisense UCGAAGUCCAGAUCCUGAGUU; sense: DNA at AGT, 2'-fluoro at CU, [invAb] at 5' end, 3' end, backbone not given here; antisense: sugars from the 5' end rrrmmmfffmmmffffmmmmm, backbone not given here)",52
3,"25414-DC: siNA duplex, NGFβ target site 615; sense B ccAcAGAcAucAAGGGcAA TTB (SEQ ID NO: 53), antisense UUGcccuuGAuGucuGuGGUU (SEQ ID NO: 54) (sense CCACAGACAUCAAGGGCAATT; antisense UUGCCCUUGAUGUCUGUGGUU; sense: DNA at AGT, 2'-fluoro at CU, [invAb] at 5' end, 3' end, backbone not given here; antisense: sugars from the 5' end rrrfffffmmfmfffmfmmmm, backbone not given here)",61
4,"25408-DC: siNA duplex, NGFβ target site 653; sense B GAGGuGAAcAuuAAcAAcA TTB (SEQ ID NO: 41), antisense UGUuGuuAAuGuucAccucUU (SEQ ID NO: 42) (sense GAGGUGAACAUUAACAACATT; antisense UGUUGUUAAUGUUCACCUCUU; sense: DNA at AGT, 2'-fluoro at CU, [invAb] at 5' end, 3' end, backbone not given here; antisense: sugars from the 5' end rrrfmffmmfmfffmffffmm, backbone not given here)",26
5,"25428-DC: siNA duplex, NGFβ target site 677; sense B uucAAAcAGuAcuuuuuuG TTB (SEQ ID NO: 81), antisense CAAAAAAGuAcuGuuuGAAUU (SEQ ID NO: 82) (sense UUCAAACAGUACUUUUUUGTT; antisense CAAAAAAGUACUGUUUGAAUU; sense: DNA at AGT, 2'-fluoro at CU, [invAb] at 5' end, 3' end, backbone not given here; antisense: sugars from the 5' end rrrmmmmmfmffmfffmmmmm, backbone not given here)",57
6,"25429-DC: siNA duplex, NGFβ target site 469; sense B ucAGGAucuGGAcuucGAG TTB (SEQ ID NO: 83), antisense CUCGAAGuccAGAuccuGAUU (SEQ ID NO: 84) (sense UCAGGAUCUGGACUUCGAGTT; antisense CUCGAAGUCCAGAUCCUGAUU; sense: DNA at AGT, 2'-fluoro at CU, [invAb] at 5' end, 3' end, backbone not given here; antisense: sugars from the 5' end rrrmmmmfffmmmffffmmmm, backbone not given here)",1
7,"25411-DC: siNA duplex, NGFβ target site 101; sense B uccGGAcccAAuAAcAGuu TTB (SEQ ID NO: 47), antisense AACuGuuAuuGGGuccGGAUU (SEQ ID NO: 48) (sense UCCGGACCCAAUAACAGUUTT; antisense AACUGUUAUUGGGUCCGGAUU; sense: DNA at AGT, 2'-fluoro at CU, [invAb] at 5' end, 3' end, backbone not given here; antisense: sugars from the 5' end rrrfmffmffmmmfffmmmmm, backbone not given here)",54
8,"25419-DC: siNA duplex, NGFβ target site 648; sense B uGGGAGAGGuGAAcAuuAA TTB (SEQ ID NO: 63), antisense UUAAuGuucAccucucccAUU (SEQ ID NO: 64) (sense UGGGAGAGGUGAACAUUAATT; antisense UUAAUGUUCACCUCUCCCAUU; sense: DNA at AGT, 2'-fluoro at CU, [invAb] at 5' end, 3' end, backbone not given here; antisense: sugars from the 5' end rrrmfmfffmffffffffmmm, backbone not given here)",25
9,"25407-DC: siNA duplex, NGFβ target site 518; sense B cAcAGGAGcAAGcGGucAu TTB (SEQ ID NO: 39), antisense AUGAccGcuuGcuccuGuGUU (SEQ ID NO: 40) (sense CACAGGAGCAAGCGGUCAUTT; antisense AUGACCGCUUGCUCCUGUGUU; sense: DNA at AGT, 2'-fluoro at CU, [invAb] at 5' end, 3' end, backbone not given here; antisense: sugars from the 5' end rrrmffmfffmfffffmfmmm, backbone not given here)",47
10,"25404-DC: siNA duplex, NGFβ target site 43; sense B cAGuGGucGuGcAGuccAA TTB (SEQ ID NO: 33), antisense UUGGAcuGcAcGAccAcuGUU (SEQ ID NO: 34) (sense CAGUGGUCGUGCAGUCCAATT; antisense UUGGACUGCACGACCACUGUU; sense: DNA at AGT, 2'-fluoro at CU, [invAb] at 5' end, 3' end, backbone not given here; antisense: sugars from the 5' end rrrmmffmfmfmmffmffmmm, backbone not given here)",33
11,"25418-DC: siNA duplex, NGFβ target site 650; sense B GGAGAGGuGAAcAuuAAcA TTB (SEQ ID NO: 61), antisense UGUuAAuGuucAccucuccUU (SEQ ID NO: 62) (sense GGAGAGGUGAACAUUAACATT; antisense UGUUAAUGUUCACCUCUCCUU; sense: DNA at AGT, 2'-fluoro at CU, [invAb] at 5' end, 3' end, backbone not given here; antisense: sugars from the 5' end rrrfmmfmfffmfffffffmm, backbone not given here)",26
12,"25405-DC: siNA duplex, NGFβ target site 124; sense B cAAGGGAGcAGcuuucuAu TTB (SEQ ID NO: 35), antisense AUAGAAAGcuGcucccuuGUU (SEQ ID NO: 36) (sense CAAGGGAGCAGCUUUCUAUTT; antisense AUAGAAAGCUGCUCCCUUGUU; sense: DNA at AGT, 2'-fluoro at CU, [invAb] at 5' end, 3' end, backbone not given here; antisense: sugars from the 5' end rrrmmmmmffmfffffffmmm, backbone not given here)",31
